Among the test systems are SK-MEL-5 melanoma; OVCAR-3 ovarian; OVCAR-8 ovarian; KM12 colon; UACC-62 melanoma; CCRF-CEM leukemia; U251 CNS; UO-31 renal; NCI/ADR-RES ovarian; CAKI-1 renal.
Test in all cases: inhibition of tumour cell growth, NCI panel, 48 h

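1) Cells in 96-well plates. 2) Compound, 48 h, 5 concentrations. 3) Linear interpolation between surrounding doses. 4) Unreached endpoint = highest concentration. TGI denotes the concentration required for complete inhibition of growth.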

Here are results for eight compounds from PubChem BioAssay (NCI).

Take `CCC1=C(CC2NCCc3cc(OC)c(OC)cc32)CC2c3ccccc3CCN2C1` (stereo not given): the TGI with SK-MEL-5 melanoma was 28 µM; with OVCAR-3 ovarian it was over 100 µM; in the assay on OVCAR-8 ovarian it was over 100 µM; in the assay with KM12 colon, over 100 µM; with UACC-62 melanoma it was 28.8 µM; in the assay with CCRF-CEM leukemia it was 33.6 µM. Further, the TGI in the assay on U251 CNS was 27.6 µM; in the assay with UO-31 renal, 36.3 µM; with NCI/ADR-RES ovarian it was over 100 µM; in the assay with CAKI-1 renal it was over 100 µM.
On to `Oc1ccc(Cl)cc1C1=Nn2c(COc3ccc4c(c3)CCCC4)nnc2SC1`, for which the TGI in the assay with SK-MEL-5 melanoma came out at 19 µM; in the assay with OVCAR-3 ovarian it was 29.8 µM; in the assay with OVCAR-8 ovarian, 30.9 µM; in the assay with KM12 colon, 29.8 µM; in the assay on UACC-62 melanoma, 25.4 µM; with CCRF-CEM leukemia, 46.3 µM. The TGI in the assay with U251 CNS worked out at 35.3 µM; in the assay with UO-31 renal, 23.4 µM; with NCI/ADR-RES ovarian it was 41.2 µM; with CAKI-1 renal, 49.6 µM.
Turning to `CN(CCN1C(=O)c2cccc3cccc(c23)C1=O)CCN1C(=O)c2cccc3cccc(c23)C1=O`, the TGI in the assay on SK-MEL-5 melanoma was over 100 µM; with OVCAR-3 ovarian it was 74.8 µM; with OVCAR-8 ovarian it was 19.2 µM; in the assay with KM12 colon, over 100 µM; in the assay with UACC-62 melanoma, over 100 µM; in the assay on CCRF-CEM leukemia, 6.91 µM. The TGI is 24.7 µM with U251 CNS, 28.8 µM in the assay on UO-31 renal, over 100 µM in the assay with NCI/ADR-RES ovarian and over 100 µM in the assay with CAKI-1 renal.
In the case of `Clc1cccc(/C=c2\nc(-c3ccccc3)n3c2nc2ccccc23)c1`, the TGI in the assay on SK-MEL-5 melanoma, in the assay with OVCAR-3 ovarian, in the assay with OVCAR-8 ovarian, in the assay with KM12 colon, with UACC-62 melanoma and in the assay with CCRF-CEM leukemia was over 100 µM each time. Moreover, the TGI in the assay with U251 CNS, with UO-31 renal, in the assay on NCI/ADR-RES ovarian and in the assay on CAKI-1 renal was over 100 µM throughout.
As to `O=C1/C(=C/c2ccc([N+](=O)[O-])cc2)Sc2scc(-c3cccc([N+](=O)[O-])c3)[n+]21`, the TGI in the assay on SK-MEL-5 melanoma was 18.6 µM; in the assay on OVCAR-3 ovarian, 15.2 µM; in the assay with OVCAR-8 ovarian, over 54.9 µM; with KM12 colon, 24.6 µM; with UACC-62 melanoma it was 29.9 µM; with CCRF-CEM leukemia it was 1.3 µM. The TGI with U251 CNS came out at 25.6 µM; in the assay on UO-31 renal, 22 µM; in the assay on NCI/ADR-RES ovarian it was 26.3 µM; in the assay with CAKI-1 renal, 7.03 µM.
As to `CCOC(=O)c1cccc(N=Nc2ncc(/C=C/C(=O)OC)[nH]2)c1`, the TGI is 30.1 µM in the assay on SK-MEL-5 melanoma; 71.1 µM with OVCAR-3 ovarian; 63.6 µM in the assay on OVCAR-8 ovarian; 82.2 µM with KM12 colon; 63.2 µM in the assay on UACC-62 melanoma; over 100 µM in the assay with CCRF-CEM leukemia. Also, the TGI in the assay on U251 CNS was over 100 µM; in the assay with UO-31 renal it was 72 µM; in the assay on NCI/ADR-RES ovarian, over 100 µM; with CAKI-1 renal, over 100 µM.
In the case of `Cc1ccc(S(=O)(=O)Nc2cc(=O)[nH]c3c2CCC3)cc1`, the TGI in the assay on SK-MEL-5 melanoma, in the assay on OVCAR-3 ovarian, with OVCAR-8 ovarian, with KM12 colon, in the assay on UACC-62 melanoma and in the assay with CCRF-CEM leukemia was over 100 µM throughout. Besides, the TGI in the assay on U251 CNS, in the assay on UO-31 renal, in the assay with NCI/ADR-RES ovarian and in the assay with CAKI-1 renal was over 100 µM each time.
Regarding `COc1cc(/C=C2\CC3C4CC[C@H]5C[C@@H](O)CC[C@]5(C)C4CC[C@]3(C)\C2=N\O)cc(OC)c1OC` (stereo not given in full), the TGI was 30.7 µM with SK-MEL-5 melanoma; 11 µM with OVCAR-3 ovarian; over 100 µM in the assay with OVCAR-8 ovarian; 56.7 µM in the assay on KM12 colon; 35 µM with UACC-62 melanoma; over 100 µM in the assay on CCRF-CEM leukemia. Besides, the TGI with U251 CNS came to 30.9 µM; with UO-31 renal, 17.4 µM; with NCI/ADR-RES ovarian it was 48.6 µM; with CAKI-1 renal, 29.3 µM.
